Reference: ChEMBL document CHEMBL1201862, “PubChem BioAssay data set” (2004)
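48-hour exposure; five concentrations; linearly interpolated endpoints. Abbreviation: GI50, concentration required for 50% inhibition of growth.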 Active and inactive are the calls of the source. Rule as the data show it: active = GI50 up to about 1.1 µM and inactive = higher.

Assays:
Assay in all cases: inhibition of tumour cell growth, NCI panel, 48 h
HCT-116 = tested on: HCT-116
UACC-62 = tested on: UACC-62
SNB-19 = tested on: SNB-19
SK-MEL-2 = tested on: SK-MEL-2
TK-10 = tested on: TK-10
MCF7 = tested on: MCF7
PC-3 = tested on: PC-3
SK-MEL-5 = tested on: SK-MEL-5
MDA-MB-435 = tested on: MDA-MB-435
OVCAR-5 = tested on: OVCAR-5
SR = tested on: SR
SK-OV-3 = tested on: SK-OV-3
HCT-15 = tested on: HCT-15
ACHN = tested on: ACHN
OVCAR-8 = tested on: OVCAR-8
T47D = tested on: T47D
HT-29 = tested on: HT-29
NCI/ADR-RES = tested on: NCI/ADR-RES
HOP-92 = tested on: HOP-92
U-251 = tested on: U-251

SMILES | GI50 (HCT-116) | GI50 (UACC-62) | GI50 (SNB-19) | GI50 (SK-MEL-2) | GI50 (TK-10) | GI50 (MCF7) | GI50 (PC-3) | GI50 (SK-MEL-5) | GI50 (MDA-MB-435) | GI50 (OVCAR-5) | GI50 (SR) | GI50 (SK-OV-3) | GI50 (HCT-15) [µM] | GI50 (ACHN) | GI50 (OVCAR-8) | GI50 (T47D) | GI50 (HT-29) | GI50 (NCI/ADR-RES) | GI50 (HOP-92) | GI50 (U-251)
O=C(Nc1ccc2[nH]c(C(=O)N3CC(CCl)c4c3cc([N+](=O)[O-])c3ccccc43)cc2c1)c1cc2ccccc2o1 (stereo not given) | > 100 µM (inactive) | > 100 µM (inactive) | > 100 µM (inactive) | > 57 µM (inactive) | > 54.5 µM (inactive) | 23 µM (inactive) | > 50.6 µM (inactive) | > 100 µM (inactive) | > 100 µM (inactive) | > 100 µM (inactive) | 95.9 µM (inactive) | > 100 µM (inactive) | > 63.4 | 44.8 µM (inactive) | > 55.6 µM (inactive) | > 55.2 µM (inactive) | > 100 µM (inactive) | > 50.6 µM (inactive) | > 58.5 µM (inactive) | > 54.3 µM (inactive)
Nc1nc(Cl)cc(NCC2(CO)CC(=O)C2)n1 | > 100 µM (inactive) | 86.7 µM (inactive) | > 100 µM (inactive) | > 100 µM (inactive) | > 100 µM (inactive) | > 100 µM (inactive) | > 100 µM (inactive) | > 100 µM (inactive) | > 100 µM (inactive) | > 100 µM (inactive) | > 100 µM (inactive) | > 100 µM (inactive) | > 100 | > 100 µM (inactive) | 65.3 µM (inactive) | 21.2 µM (inactive) | > 100 µM (inactive) | > 100 µM (inactive) | > 100 µM (inactive) | > 100 µM (inactive)
